Each structure is given as a SMILES string. A value given as a limit tells only on which side of the number the result lay.

T1 sequence (Q9QZ05 whole entry): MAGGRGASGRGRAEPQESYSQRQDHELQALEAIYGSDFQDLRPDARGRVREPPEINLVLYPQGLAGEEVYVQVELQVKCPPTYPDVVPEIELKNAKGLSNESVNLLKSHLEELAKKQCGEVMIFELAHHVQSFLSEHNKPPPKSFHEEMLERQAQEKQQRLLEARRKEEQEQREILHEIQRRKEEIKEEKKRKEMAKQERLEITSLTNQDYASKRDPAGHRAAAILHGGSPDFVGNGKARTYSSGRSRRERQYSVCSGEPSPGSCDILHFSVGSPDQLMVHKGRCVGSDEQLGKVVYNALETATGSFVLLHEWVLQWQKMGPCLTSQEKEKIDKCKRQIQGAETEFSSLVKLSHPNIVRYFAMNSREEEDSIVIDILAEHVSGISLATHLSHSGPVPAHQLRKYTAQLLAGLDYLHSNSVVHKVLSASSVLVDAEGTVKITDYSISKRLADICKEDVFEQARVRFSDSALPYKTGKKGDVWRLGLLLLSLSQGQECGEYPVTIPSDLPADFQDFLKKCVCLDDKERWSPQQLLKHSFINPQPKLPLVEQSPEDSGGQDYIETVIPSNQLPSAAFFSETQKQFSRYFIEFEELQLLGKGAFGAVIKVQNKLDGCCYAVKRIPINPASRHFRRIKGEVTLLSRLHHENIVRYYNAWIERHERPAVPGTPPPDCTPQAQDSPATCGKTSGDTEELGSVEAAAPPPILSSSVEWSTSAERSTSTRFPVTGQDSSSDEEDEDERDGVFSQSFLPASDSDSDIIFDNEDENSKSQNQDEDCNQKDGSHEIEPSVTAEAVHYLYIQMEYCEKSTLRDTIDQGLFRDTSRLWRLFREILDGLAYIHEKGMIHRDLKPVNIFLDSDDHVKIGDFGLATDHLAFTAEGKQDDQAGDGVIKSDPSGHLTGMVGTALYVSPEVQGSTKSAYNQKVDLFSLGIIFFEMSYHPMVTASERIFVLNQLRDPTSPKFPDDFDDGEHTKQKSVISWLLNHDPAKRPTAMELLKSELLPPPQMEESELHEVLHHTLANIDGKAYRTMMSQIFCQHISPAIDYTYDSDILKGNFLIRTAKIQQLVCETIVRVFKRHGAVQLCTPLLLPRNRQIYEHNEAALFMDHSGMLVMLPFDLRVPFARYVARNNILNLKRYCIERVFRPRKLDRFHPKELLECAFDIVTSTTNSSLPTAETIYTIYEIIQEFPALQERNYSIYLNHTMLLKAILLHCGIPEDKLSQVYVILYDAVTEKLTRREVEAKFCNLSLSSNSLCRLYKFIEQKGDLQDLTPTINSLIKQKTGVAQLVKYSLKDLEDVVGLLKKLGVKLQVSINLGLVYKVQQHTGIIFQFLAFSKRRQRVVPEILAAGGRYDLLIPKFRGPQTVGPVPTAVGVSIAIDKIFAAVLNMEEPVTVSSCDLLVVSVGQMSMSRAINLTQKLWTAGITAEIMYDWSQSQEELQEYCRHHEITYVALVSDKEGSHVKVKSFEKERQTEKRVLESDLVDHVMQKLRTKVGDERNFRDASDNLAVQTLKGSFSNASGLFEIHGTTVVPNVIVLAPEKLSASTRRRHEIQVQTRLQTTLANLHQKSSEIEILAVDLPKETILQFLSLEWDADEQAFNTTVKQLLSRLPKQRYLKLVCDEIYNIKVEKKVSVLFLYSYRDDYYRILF

This assay concerns the target T1, GCN2 (Mus musculus, UniProt Q9QZ05).
T1 construct: endogenous in cells; host or cells: Neuro 2a (N2a)
Description: GCN2 inhibition cell-based assay (P-GCN2 Western blot in Neuro 2a cells). To be noted: amino acid deprived media (DMEM lacking L-cysteine and methionine), 3 hours. The protocol:
Neuro 2a cells (N2a) were maintained at 37° C. and 5% CO2 in DMEM/F12 medium (Fisher Scientific) supplemented with 10% fetal bovine serum and 1% penicillin-streptomycin (complete medium). 300,000 cells/well were seeded in flat bottom 6 well plates 48 hours before treatment with the compounds.
Testing compounds were prepared at different concentrations ranging from 10 μM to 0.1 nM on DMEM medium lacking L-cysteine and methionine (DMEM-CM) (Gibco) and supplemented with 1% penicillin-streptomycin. Complete medium was used as control of non-stressed condition. After 48 hours, the medium was removed from each well and 2 mL per well of each treatment was added. Cells were treated for 3 hours at 37° C. and 5% CO2.
After the incubation time, each well was washed with sterile 1×PBS and then 100 μL of ice-cold lysis buffer supplemented with phosphatase and protease inhibitors was added. Lysates were transferred to 1.5 mL tubes and sonicated for 3 min, and total protein amounts were quantified using BCA assay (e.g., BCA Protein Assay Kit; Pierce) according to manufacturer instructions. Equal amount of proteins was loaded on SDS-PAGE gels for electrophoresis and then transferred onto 0.2 µm filter pore PVDF membranes.
Membranes were then blocked in blocking buffer containing 3% BSA/0.1% Tween/1×Tris-buffered saline (TBS) for 1 hour and then incubated overnight at 4° C. with agitation with anti-pGCN2 primary antibody (Abcam ab-75836), diluted 1:1,000 in blocking buffer. […] (Sigma Aldrich) was used as a loading control.
Membranes were then incubated with the corresponding secondary antibody to detect immune-reactive bands using enhanced chemiluminescence (e.g., ECL Western Blotting Substrate Pierce).
Images were acquired (e.g., using Chemidoc™ equipment) and quantitated by densitometry using ImageJ software. IC50 values were determined from a concentration-response curve using GraphPad prism software.
IC50 values from P-GCN2 inhibition assay after induction with amino acid deprived media in the presence of different concentrations of test compounds are shown in Table 2. For IC50 values: +++ refers to <10 nM of test compound; ++ refers to 10 nM to 100 nM of test compound; + refers to 100 nM to 1,000 nM of test compound and − refers to >1,000 nM of test compound.
Under GCN2-mediated stress conditions, resulting from an amino acid deprived medium, GCN2 is generally phosphorylated. Accordingly, inhibition of GCN2 phosphorylation as a result of the test compound indicates inhibition of the GCN2 pathway.
Take `Nc1ncc2cc(-c3c(F)ccc(NS(=O)(=O)c4cc(F)ccc4F)c3F)ccc2n1` [Compound 8]: the IC50 was more than 1000 nM. Regarding `Nc1ncc2cc(-c3c(F)ccc(NS(=O)(=O)c4ccc(Cl)c(Cl)c4)c3F)ccc2n1` [Compound 9], the 50% inhibitory concentration (IC50) fell in the range of 100 to 1000 nM. Compound `COc1ccc(Cl)cc1S(=O)(=O)Nc1ccc(F)c(-c2ccc3nc(N)ncc3c2)c1F` [Compound 10] gave a 50% inhibitory concentration (IC50) of less than 10 nM. In turn, `Cc1c(NS(=O)(=O)c2cc(Cl)ccc2Cl)cccc1-c1ccc2nc(N)ncc2c1` [Compound 11] yielded a half-inhibitory concentration (IC50) of 10 to 100 nM.

`Nc1ncc2cc(-c3ccc(F)c(NS(=O)(=O)c4cc(Cl)ccc4Cl)c3F)ccc2n1` [Compound 12] had a half-inhibitory concentration (IC50) of more than 1000 nM. To `Nc1ncc2cc(-c3cccc(NS(=O)(=O)c4cc(Cl)ccc4Cl)c3F)ccc2n1` [Compound 13] belongs less than 10 nM; to `Nc1ncc2cc(-c3cc(F)cc(NS(=O)(=O)c4cc(Cl)ccc4Cl)c3)ccc2n1` [Compound 14], more than 1000 nM; to `Nc1ncc2cc(-c3c(F)ccc(N[S+]([O-])c4ccc(Cl)cc4Cl)c3F)ccc2n1` (stereo not shown) [Compound 15], 100 to 1000 nM. To `Cc1ccc(NS(=O)(=O)c2cc(Cl)ccc2Cl)cc1-c1ccc2nc(N)ncc2c1` [Compound 16] belongs 100 to 1000 nM. To `Nc1ncnc2ccc(-c3c(F)ccc(NS(=O)(=O)c4cc(Cl)ccc4Cl)c3F)cc12` [Compound 17] belongs more than 1000 nM; to `O=S(=O)(Nc1ccc(F)c(-c2cc(F)c3[nH]cnc3c2)c1F)c1cc(Cl)ccc1Cl` [Compound 18], more than 1000 nM; to `COc1ncc(Cl)cc1S(=O)(=O)Nc1ccc(F)c(-c2ccc3nc(N)ncc3c2)c1` [Compound 19], 100 to 1000 nM. In the case of `COc1ncc(Cl)cc1S(=O)(=O)Nc1ccc(F)c(-c2ccc3nc(N)ccc3c2)c1F` [Compound 20], the concentration for half-maximal inhibition (IC50) is more than 1000 nM. `COc1ncc(Cl)cc1S(=O)(=O)Nc1ccc(F)c(-c2cccc3cnc(N)nc23)c1F` [Compound 44]: the IC50 is more than 1000 nM. As to `COc1ncc(Cl)cc1S(=O)(=O)Nc1ccc(F)c(-c2cccc3nc(N)ncc23)c1F` [Compound 45], the IC50 was more than 1000 nM. The compound `COc1ncc(Cl)cc1S(=O)(=O)Nc1ccc(F)c(-c2ccc3nc(NCCO)ncc3c2)c1F` [Compound 46] registered a concentration for half-maximal inhibition (IC50) of less than 10 nM. To `CNc1ncc2cc(-c3c(F)ccc(NS(=O)(=O)c4cc(Cl)cnc4OC)c3F)ccc2n1` [Compound 47] belongs less than 10 nM.

Take `COc1ncc(Cl)cc1S(=O)(=O)Nc1cccc(-c2ccc3nc(N)ncc3c2)c1C` [Compound 51]: the IC50 was less than 10 nM.

In turn, `Nc1ncc2cc(-c3c(F)ccc(NS(=O)(=O)c4cc(Cl)ccc4C(F)(F)F)c3F)ccc2n1` [Compound 58] returned a concentration for half-maximal inhibition (IC50) of less than 10 nM.

Compound `Nc1ncc2cc(-c3c(F)ccc(NS(=O)(=O)c4cc(Cl)cc(Cl)c4)c3F)ccc2n1` [Compound 59] displayed an IC50 of less than 10 nM. On to `Nc1ncc2cc(-c3c(F)ccc(NS(=O)(=O)c4cc(Cl)cc(C(F)(F)F)c4)c3F)ccc2n1` [Compound 63], for which the IC50 is 10 to 100 nM.

`Nc1ncc2cc(-c3c(F)ccc(NS(=O)(=O)c4cccc5cnccc45)c3F)ccc2n1` [Compound 64] came in with a 50% inhibitory concentration (IC50) of less than 10 nM. `COc1ncc(Cl)cc1S(=O)(=O)Nc1ccc(F)c(-c2ccc3nc(N[C@H]4CC[C@H](O)CC4)ncc3c2)c1F` [Compound 65] had an IC50 of less than 10 nM.

As to `COc1ncc(Cl)cc1S(=O)(=O)Nc1ccc(F)c(-c2ccc3nc(N[C@H](C)CO)ncc3c2)c1F` [Compound 66], the IC50 was less than 10 nM. For the compound `O=S(=O)(Nc1ccc(F)c(-c2ccc3nc(N[C@H]4CC[C@H](O)CC4)ncc3c2)c1F)c1cc(Cl)ccc1Cl` [Compound 67], the concentration for half-maximal inhibition (IC50) is less than 10 nM. Turning to `O=S(=O)(Nc1ccc(F)c(-c2ccc3nc(N[C@H]4CC[C@H](O)CC4)ncc3c2)c1F)c1cc(Cl)cc(CO)c1Cl` [Compound 69], the half-maximal inhibitory concentration (IC50) was less than 10 nM. In the case of `Nc1ncc2cc(-c3cccc4c3ccn4S(=O)(=O)c3cc(Cl)ccc3Cl)ccc2n1` [Compound 76], the half-maximal inhibitory concentration (IC50) was more than 1000 nM. Compound `Nc1ncc2cc(-c3c(F)ccc(NS(=O)(=O)C4CCCCC4)c3F)ccc2n1` [Compound 81] came in with an IC50 of more than 1000 nM. `COc1ncc(Cl)cc1S(=O)(=O)Nc1ccc(F)c(-c2ccc3nc(NC(=O)C(C)(C)C)ncc3c2)c1F` [Compound 105] showed an IC50 of 10 to 100 nM.

As for `CC(=O)Nc1ncc2cc(-c3c(F)ccc(NS(=O)(=O)c4cc(Cl)ccc4Cl)c3F)ccc2n1` [Compound 106], the IC50 was less than 10 nM. To `Nc1ccc2cc(-c3c(F)ccc(NS(=O)(=O)c4cc(Cl)ccc4Cl)c3F)ccc2n1` [Compound 107] belongs more than 1000 nM; to `Cc1cc(S(=O)(=O)Nc2ccc(F)c(-c3ccc4nc(N)ncc4c3)c2F)c(C)cc1Cl` [Compound 109], 10 to 100 nM; to `COc1ccc(F)cc1S(=O)(=O)Nc1ccc(F)c(-c2ccc3nc(N)ncc3c2)c1F` [Compound 110], more than 1000 nM.

As for `Nc1ncc2c(-c3c(F)ccc(NS(=O)(=O)c4cc(Cl)ccc4Cl)c3F)cccc2n1` [Compound 111], the concentration for half-maximal inhibition (IC50) is more than 1000 nM.

As for `Nc1ncc2cc(-c3c(F)ccc(NS(=O)(=O)c4cc(F)cc(F)c4)c3F)ccc2n1` [Compound 112], the IC50 is more than 1000 nM.

In the case of `Cc1cc(C)cc(S(=O)(=O)Nc2ccc(F)c(-c3ccc4nc(N)ncc4c3)c2F)c1` [Compound 113], the 50% inhibitory concentration (IC50) was less than 10 nM. Take `COc1ccc(S(=O)(=O)Nc2ccc(F)c(-c3ccc4nc(N)ncc4c3)c2F)cc1OC` [Compound 115]: the IC50 is 10 to 100 nM.

Consider `Nc1ncc2cc(-c3c(F)ccc(NS(=O)(=O)c4cccc(F)c4)c3F)ccc2n1` [Compound 116], for which the half-maximal inhibitory concentration (IC50) was more than 1000 nM. The compound `COc1ccc(S(=O)(=O)Nc2ccc(F)c(-c3ccc4nc(N)ncc4c3)c2F)cc1C` [Compound 117] showed an IC50 of more than 1000 nM. Compound `COc1ccc(C)cc1S(=O)(=O)Nc1ccc(F)c(-c2ccc3nc(N)ncc3c2)c1F` [Compound 118] registered an IC50 of 10 to 100 nM.

With `COc1ccc(OC)c(S(=O)(=O)Nc2ccc(F)c(-c3ccc4nc(N)ncc4c3)c2F)c1` [Compound 119], the IC50 was more than 1000 nM.

Take `CCc1ccc(OC)c(S(=O)(=O)Nc2ccc(F)c(-c3ccc4nc(N)ncc4c3)c2F)c1` [Compound 120]: the IC50 is more than 1000 nM.

Turning to `Nc1ncc2cc(-c3c(F)ccc(NS(=O)(=O)c4cc(C(F)(F)F)ccc4C(F)(F)F)c3F)ccc2n1` [Compound 121], the IC50 was less than 10 nM. On to `Nc1ncc2cc(-c3c(F)ccc(NS(=O)(=O)c4ccc5occc5c4)c3F)ccc2n1` [Compound 122], for which the IC50 fell in the range of 100 to 1000 nM. Compound `Nc1ncc2cc(-c3c(F)ccc(NS(=O)(=O)c4cc(F)cc(C(F)(F)F)c4)c3F)ccc2n1` [Compound 123] had a half-inhibitory concentration (IC50) of more than 1000 nM. `Nc1ncc2cc(-c3c(F)ccc(NS(=O)(=O)c4cccc(F)c4F)c3F)ccc2n1` [Compound 124] showed an IC50 of more than 1000 nM. `Cc1cccc(S(=O)(=O)Nc2ccc(F)c(-c3ccc4nc(N)ncc4c3)c2F)c1` [Compound 125] yielded an IC50 of more than 1000 nM. The compound `O=S(=O)(Nc1ncc(F)c(-c2ccc3nc(NCCO)ncc3c2)c1F)c1cc(Cl)ccc1Cl` [Compound 128] registered an IC50 of less than 10 nM. As for `COc1ncc(Cl)cc1S(=O)(=O)Nc1ccc(F)c(-c2ccc3nc(N[C@H]4CC[C@@H](O)CC4)ncc3c2)c1F` [Compound 129], the IC50 is less than 10 nM.

The compound `Nc1ncc2cc(-c3c(F)ccc(NS(=O)(=O)c4cccnc4)c3F)ccc2n1` [Compound 130] had an IC50 of more than 1000 nM. Turning to `COc1ncc(Cl)cc1S(=O)(=O)Nc1ccc(Cl)c(-c2ccc3nc(N)ncc3c2)c1Cl` [Compound 131], the IC50 fell in the range of 10 to 100 nM.

In turn, `Nc1ncc2cc(-c3c(F)ccc(NS(=O)(=O)c4ccc(F)c(F)c4)c3F)ccc2n1` [Compound 132] had an IC50 of more than 1000 nM. Turning to `Cc1ccc(F)cc1S(=O)(=O)Nc1ccc(F)c(-c2ccc3nc(N)ncc3c2)c1F` [Compound 133], the IC50 is 10 to 100 nM. In turn, `O=S(=O)(Nc1ccc(F)c(-c2ccc3nc(NCCO)ncc3c2)c1F)c1cc(Cl)cc(CO)c1Cl` [Compound 134] returned a half-inhibitory concentration (IC50) of less than 10 nM. `Nc1ncc2cc(-c3c(F)ccc(NS(=O)(=O)c4cc(C(F)(F)F)ccc4F)c3F)ccc2n1` [Compound 135] had an IC50 of 100 to 1000 nM. Compound `Nc1ncc2cc(-c3c(F)ccc(NS(=O)(=O)c4ccc(F)c(C(F)(F)F)c4)c3F)ccc2n1` [Compound 136] came in with a concentration for half-maximal inhibition (IC50) of 100 to 1000 nM. Turning to `Nc1ncc2cc(-c3c(F)ccc(NS(=O)(=O)c4ccc(Cl)cc4C(F)(F)F)c3F)ccc2n1` [Compound 137], the IC50 was in the range of 10 to 100 nM. To `Nc1ncc2cc(-c3c(F)ccc(NS(=O)(=O)c4ccc(F)c(C(F)(F)F)c4)c3F)ccc2n1` [Compound 138] belongs more than 1000 nM.

For orientation: IC50 means the midpoint of a concentration-inhibition curve. A low value points to greater potency in that assay.

Values taken from patent US12630529B2, “GCN2 modulator compounds” (ALESTA THERAPEUTICS BV, priority 2020, dated 2026).
